Measurements: doi:10.1101/2022.06.05.494897v1 (biorxiv, 2022)
Where two headings read alike, the source gives them in different places.

Columns and labels:
Assay type in all cases: biochemical
human cathepsin B = human cathepsin B (Homo sapiens, UniProt P07858); assay: fluorogenic peptide cleavage assay
human cathepsin L = human cathepsin L (Homo sapiens, UniProt P07711); assay: fluorogenic peptide cleavage assay
SARS-CoV-2 3CL^pro = SARS-CoV-2 3CL^pro (Severe acute respiratory syndrome coronavirus 2, UniProt P0DTD1)

human cathepsin L, sequence (P07711 114-333 limits assumed): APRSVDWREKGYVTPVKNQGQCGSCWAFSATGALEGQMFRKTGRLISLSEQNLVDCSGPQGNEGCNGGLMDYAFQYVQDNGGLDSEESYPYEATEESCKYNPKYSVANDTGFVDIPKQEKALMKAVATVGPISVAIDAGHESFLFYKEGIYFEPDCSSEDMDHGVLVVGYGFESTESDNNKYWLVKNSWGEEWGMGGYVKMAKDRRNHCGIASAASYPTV

## CC(C)C[C@H](NC(=O)c1cc2c(F)cccc2[nH]1)C(=O)NN(C[C@@H]1CCNC1=O)C(=O)[C@H](F)Cl [8a, N-((S)-1-(2-((R)-2-Chloro-2-fluoroacetyl)-2-(((S)-2-oxopyrrolidin-3-yl)methyl)hydrazineyl)-4-methyl-1-oxopentan-2-yl)-4-fluoro-1H-indole-2-carboxamide]
Human cathepsin B
  IC50: > 10 µM
Human cathepsin L
  IC50: > 10 µM

## COc1cccc2[nH]c(C(=O)N[C@@H](CC(C)C)C(=O)NN(C[C@H]3CCNC3=O)C(=O)[C@H](F)Cl)cc12 [10b, N-((S)-1-(2-((R)-2-Chloro-2-fluoroacetyl)-2-(((R)-2-oxopyrrolidin-3-yl)methyl)hydrazineyl)-4-methyl-1-oxopentan-2-yl)-4-methoxy-1H-indole-2-carboxamide]
SARS-CoV-2 3CL^pro
  IC50: 0.0156 µM

## N-((S)-1-(2-Acetyl-2-(((S)-2-oxopyrrolidin-3-yl)methyl)hydrazineyl)-4-methyl-1-oxopentan-2-yl)-4-fluoro-1H-indole-2-carboxamide [compound 12]
SARS-CoV-2 3CL^pro; […], no CFA warhead, 30 min preincubation, pH 7.3, 1 mM DTT, ambient temperature
  IC50: 0.178 µM
